Test results from US20070197625A1, “Azabicyclic compounds, a process for their preparation and pharmaceutical compositions containing them” (Les Laboratoraties Servier, priority 2004, published 2007).

Target: T1, type H3 central histaminergic receptors (Mus musculus, UniProt P58406)
T1 construct: from tissue; host or cells: brain of living NMRI mice
Assay: Cerebral doses of N^t-methylhistamine in the NMRI mouse (ex vivo, after oral administration)
Details: NMRI mice, brain two hours after treatment, vs carrier control
Protocol: The aim of this study, carried out according to the method of Taylor et al. (Biochem. Pharm., 1992, 44, 1261-1267), is to evaluate the ex vivo activity of the compounds of the present invention as type H3 central histaminergic receptor antagonists. […] An increase in the cerebral concentrations of N^t-methylhistamine signifies an increase in histamine turnover by blockade of the type H3 central histaminergic receptors.
NMRI mice (18-20 g) are treated via oral administration with the compounds of the present invention or with their carrier (20 ml/kg). Two hours after the pharmacological treatment, the animals are sacrificed, the brains are removed, frozen in liquid nitrogen, weighed and homogenised in 0.1N HClO4 at 4° C. The homogenates are centrifuged (15000 g, 17 min, 4° C.). The supernatants are recovered and divided into aliquots. The aliquots are frozen in liquid nitrogen and stored at −80° C. until their analysis.
Determination of the cerebral levels of N^t-methylhistamine is effected by capillary electrophoresis coupled with detection by laser-induced fluorescence (J. Chromatogr. A., 1996, 755, 99-115). The tissue levels of N^t-methylhistamine are expressed in ng/g of fresh brain. Comparison between the cerebral levels of N^t-methylhistamine of the animals treated with the carrier (control) and the animals treated with the compounds of the present invention (n=5/group) is effected by single factor variance analysis followed, if necessary, by a supplementary analysis (Dunnett's test).

T1 sequence (P58406 whole entry): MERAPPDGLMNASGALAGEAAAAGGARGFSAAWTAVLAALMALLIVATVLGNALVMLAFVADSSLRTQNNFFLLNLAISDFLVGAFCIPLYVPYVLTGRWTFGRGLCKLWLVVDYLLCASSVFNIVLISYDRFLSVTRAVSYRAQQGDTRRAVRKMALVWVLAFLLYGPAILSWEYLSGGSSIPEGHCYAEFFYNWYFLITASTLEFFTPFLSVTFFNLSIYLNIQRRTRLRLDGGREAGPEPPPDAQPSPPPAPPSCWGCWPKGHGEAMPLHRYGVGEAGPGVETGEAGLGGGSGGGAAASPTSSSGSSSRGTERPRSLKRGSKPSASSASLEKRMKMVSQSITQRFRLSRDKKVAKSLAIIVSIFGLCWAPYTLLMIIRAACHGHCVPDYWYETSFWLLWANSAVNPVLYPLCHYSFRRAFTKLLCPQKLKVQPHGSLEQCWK

SMILES | increase of the endogenous cerebral concentrations of N^t-methylhistamine (10 mg/kg p.o.) [%] | increase of the endogenous cerebral concentrations of N^t-methylhistamine (3 mg/kg p.o.) [%]
N#Cc1ccc(OCCCN2CC3CCCC3C2)cc1.O=C(O)C(=O)O (centres unmarked) [Example 1, 4-(3-Hexahydrocyclopenta[c]pyrrol-2(1H)-ylpropoxy)benzonitrile oxalate] | 92 | –
CC(=O)Nc1ccc(OCCCN2CC3CCCC3C2)cc1.O=C(O)C(=O)O (centres unmarked) [Example 4, N-[4-(3-Hexahydrocyclopenta[c]pyrrol-2(1H)-ylpropoxy)-phenyl]acetamide oxalate] | – | 52
NC(=O)c1ccc(OCCCN2CC3CCCC3C2)cc1.O=C(O)C(=O)O (centres unmarked) [Example 22, 4-(3-Hexahydrocyclopenta[c]pyrrol-2(1H)-ylpropoxy)benzamide oxalate] | 85 | 33
CNC(=O)c1ccc(OCCCN2CC3CCCC3C2)cc1 (centres unmarked) [Example 93, 4-[3-(Hexahydrocyclopenta[c]pyrrol-2(1H)-yl)propoxy]-N-methylbenzamide] | – | 90
